Assay [1] relates to human cytomegalovirus Davis strain. Put plainly: Antiviral activity on human cytomegalovirus, Davis strain (protection from virus-induced cytopathogenic effect). To be noted: for IC50: Human betaherpesvirus 5, Davis strain, read-out: IC50 (concentration necessary to inhibit 50% of the cytopathogenic effect induced by the virus); for IC50 (concentration necessary to inhibit 50% of the cytopathogenic effect induced by the virus): Davis strain. It is filed as cell-based. Here is the method:
(§1) Infect. Dis., 10, 1026-1033 (1991); or in the technique described by Andrei et al., Eur. J. Clin. Microbiol. Infect. Dis., 11, 143-151 (1992), Reymen et al., Antiviral Res., 28, 343-357 (1995).
(§2) The technique used consists in the measurement of the cytopathogenic effect of the herpesvirus and of its protection by the use of products of general formula (I). The antiviral activity is assessed by measuring the IC50 (concentration necessary to inhibit 50% of the cytopathogenic effect induced by the virus).
(§3) The activity of the products according to the invention on the human cytomegalovirus has been studied on the Davis and AD-169 strains.

Assay [2] concerns human cytomegalovirus AD-169 strain. The assay is described as follows: Antiviral activity on human cytomegalovirus, AD-169 strain (protection from virus-induced cytopathogenic effect). The assay is classed as cell-based. The method, then:
as §1, §2, §3

The results in this text go back to patent US6207675A, “Pyrrole derivatives, their preparation and pharmaceutical compositions containing them” (Rhone-Poulenc Rorer S.A., priority 1996, dated 2001).

Values after ≈ are worked out from the molar mass of the structure shown.

In the case of `NC(=O)c1c(Cl)c(-c2cccnc2)n2c1C=C(Cl)CC2` [Example 1, 2,7-dichloro-3-pyridin-3-yl-5,6-dihydroindolizine-1-carboxamide], the IC50 in assay [1] was found to be 0.5 µg/mL (≈ 1.62 µM).

Consider `COC1=Cc2c(C(N)=O)c(Cl)c(-c3cccnc3)n2CC1` [Example 2, 2-chloro-7-methoxy-3-pyridin-3-yl-5,6-dihydroindolizine-1-carboxamide], for which the figures for the “IC50 (concentration necessary to inhibit 50% of the cytopathogenic effect induced by the virus)” value in assay [2] (AD-169 strain) and in assay [1] were 0.86 µg/mL and 0.72 µg/mL, respectively. For the same compound, the IC50 in assay [2] (Human betaherpesvirus 5, AD169, AD-169 strain, read-out: IC50 (concentration necessary to inhibit 50% of the cytopathogenic effect induced by the virus)) turned out to be 0.5 µg/mL (≈ 1.65 µM); in assay [1] it was 0.43 µg/mL (≈ 1.42 µM).

As to `NC(=O)c1c(Cl)c(-c2cccnc2)n2c1C(O)CCC2` (racemic) [Example 7, (R,S)-2-chloro-8-hydroxy-3-pyridin-3-yl-5,6,7,8-tetrahydroindolizine-1-carboxamide], in assay [1] (listed as 7 [(R,S) form]), the “IC50 (concentration necessary to inhibit 50% of the cytopathogenic effect induced by the virus)” value was 0.015 µg/mL. Also, the IC50 in assay [1] was found to be 0.027 µg/mL (≈ 0.0925 µM).
